The record followed here is patent EP0933027A1, “Methods and compositions for protecting animals and humans against attack and infestation by arthropod and helminth parasites” (American Cyanamid Company, priority 1998, dated 1999).

Assay [1] has as its system Musca domestica. Description: Coated vial test against adult house fly. The procedure: This test is designed to evaluate the activity of test compounds against the house fly. Test compounds are dissolved in 100% acetone to 1000, 300, 100, 10 and 1 ppm. 100 µL of each of these dilutions is added to the bottom of a 20 mL glass scintillation vial with a pipettor. The vial is allowed to dry under a fume hood for 15 minutes. The vial is then turned on its side, and 250 µL of each dilution is applied to the sides of the vial. The vial is placed on a rolling machine and allowed to roll under the hood, coating the sides of the vial, until the acetone completely evaporates. The bottom of the vial measures 4.909 cm^2 and the sides measure 4.5 cm high x 8.8 cm around, so that the total coated area of the scintillation vial measures 44.51 cm^2. The amount of test compound applied by each dilution equals 7.86, 2.36, 0.79, 0.079, and 0.0079 µg/cm^2, respectively. Included in all tests are two to three replications of untreated vials. Adult house flies which are five to seven days old are chilled in a freezer for five minutes to immobilize, and are placed on a sorting platform which provides a steady stream of CO2 to keep the flies immobile. Five flies are counted into each scintillation vial with forceps. The top of the vial is plugged with a wad of sheet cotton sufficient to contain the flies. These tests are done in replicates of two to four so that there are 10 to 20 flies per rate/compound. Mortality readings are taken 1 and 4 hours after placing the flies in the vials. Flies which are unable to stand when disturbed are considered dead. Percent mortality is then calculated for each treatment.

Assay [2] deals with Dermacentor variabilis. Description: Contact activity against larval American dog tick (coated vial). The method, then:
This test is designed to evaluate the contact activity of test compounds against the American dog tick. Test compounds are dissolved in 100% acetone to 1000, 300, 100, 10, 1 and 0.1 ppm. 100 µL of each of these dilutions is added to the bottom of a 20 mL glass scintillation vial with a pipettor. The vial is allowed to dry under a fume hood for 15 minutes. The vial is then turned in its side, and 250 µL of each dilution is applied to the sides of the vial. The vial is placed on a rolling machine and allowed to roll under the hood, coating the sides of the vial, until the acetone completely evaporates. The bottom of the vial measures 4.909 cm^2 and the sides measure 4.5 cm high x 8.8 cm around, so that the total coated area of the scintillation vial measures 44.51 cm^2. The amount of test compound applied by each dilution equals 7.86, 2.36, 0.79, 0.079, 0.0079 and 0.00079 µg/cm^2, respectively. Unfed larval dog ticks are counted into the scintillation vials with a slightly damp paintbrush. Ten ticks are placed in each vial. These tests are done in replicates of two or three so that there are 20 to 30 ticks per rate/compound. Mortality readings are taken 4 and 24 hours after placing the ticks in the vials. To read the test, the vial is placed under a magnifying glass and tapped gently. […] Percent mortality is then calculated for each treatment.

Where [3] appears, read: dose 0.079 µg/cm^2, 4 hours, read-out: 4 Hour % Mortality.
Setting [4] is: dose 0.790 µg/cm^2, 4 hours, read-out: 4 Hour % Mortality.
Where [5] appears, read: dose 2.360 µg/cm^2, 4 hours, read-out: 4 Hour % Mortality.

Where two headings read alike, the source gives them in different places.

Regarding `CCOc1ccc(C(/C(F)=C/Cc2ccc(F)c(Oc3ccccc3)c2)C2CC2)cc1` (centres unmarked) [Compound 10, 1-[1-(p-Ethoxyphenyl)-2-fluoro-4-(4-fluoro-3-phenoxyphenyl)-2-butenyl]cyclopropane, (Z)-], the mortality at 0.079 µg/cm2 amounted to 20% in assay [1] (dose 0.079 µg/cm^2, 1 hour, read-out: 1 Hour % Mortality); 60% in assay [1] (setting [3]); 100% in assay [2] (setting [3]); 100% in assay [2] (dose 0.079 µg/cm^2, 24 hours, read-out: 24 Hour % Mortality). Also, the mortality at 0.79 µg/cm2 in assay [1] (dose 0.790 µg/cm^2, 1 hour, read-out: 1 Hour % Mortality) was 20%; in assay [1] (setting [4]) it was 75%; in assay [2] (setting [4]), 100%; in assay [2] (dose 0.790 µg/cm^2, 24 hours, read-out: 24 Hour % Mortality) it was 100%. The mortality at 2.36 µg/cm2 is 40% in assay [1] (dose 2.360 µg/cm^2, 1 hour, read-out: 1 Hour % Mortality); 100% in assay [1] (setting [5]); 100% in assay [2] (setting [5]); 100% in assay [2] (dose 2.360 µg/cm^2, 24 hours, read-out: 24 Hour % Mortality). In addition, the mortality at 7.86 µg/cm2 came out at 100% in assay [2] (dose 7.860 µg/cm^2, 4 hours, read-out: 4 Hour % Mortality) and 100% in assay [2] (dose 7.860 µg/cm^2, 24 hours, read-out: 24 Hour % Mortality).

As usually defined, the mortality is the percentage killed.
